pIC50: −log10 of the molar value.
Columns and labels:
[1] = Cytotoxicity against LPS/IFNgamma-stimulated mouse RAW264.7 cells assessed as reduction in cell viability after 24 hrs by Alamar Blue assay; assay type: toxicity, cell-based; details: LPS/IFNgamma-stimulated RAW264.7 cells, read-out: LC50
[2] = Inhibition of TNF-alpha production in LPS/IFNgamma-stimulated mouse RAW264.7 cells preincubated for 1 hr followed by LPS/IFNgamma addition and measured after 24 hrs by ELISA; assay type: functional, cell-based
RAW264.7 = test: Inhibition of NO production in LPS/IFNgamma-stimulated mouse RAW264.7 cells preincubated for 1 hr followed by LPS/IFNgamma addition and measured after 24 hrs by griess reagent based assay; assay type: functional, cell-based
[3] = Therapeutic index, ratio of LC50 for cytotoxicity against LPS/IFNgamma-stimulated mouse RAW264.7 cells to IC50 for inhibition of NO production in LPS/IFNgamma-stimulated mouse RAW264.7 cells; assay type: toxicity, cell-based; details: LPS/IFNgamma-stimulated RAW264.7 cells, read-out: Ratio LC50/IC50

COc1cc(/C=C/C(=O)CC(=O)/C=C/c2ccc(O)c(OC)c2)ccc1O [CURCUMIN]
CC50 at 24 h [1]: 73 µM | pIC50 [2]: 4.51 | pIC50 (RAW264.7): 4.65 | selectivity ratio [3]: 3.2

O=C1C=CC[C@H](C[C@H](O)C[C@@H](O)CC/C=C/c2ccccc2)O1
CC50 at 24 h [1]: 37.6 µM | pIC50 [2]: 4.53 | pIC50 (RAW264.7): 5.25 | selectivity ratio [3]: 6.8

CC(=O)O[C@H](C[C@@H](O)CC/C=C/c1ccccc1)C[C@H]1CC=CC(=O)O1
CC50 at 24 h [1]: 97.9 µM | pIC50 [2]: 4.77 | pIC50 (RAW264.7): 4.99 | selectivity ratio [3]: 9.5

O=C1C=CC[C@H](/C=C/C=C/C[C@H](O)C[C@@H](O)CC/C=C/c2ccccc2)O1
CC50 at 24 h [1]: 41.3 µM | pIC50 [2]: 4.55 | pIC50 (RAW264.7): 5.27 | selectivity ratio [3]: 7.6

O=C1C=CC[C@H](CC(O)/C=C/C[C@H](O)C[C@@H](O)CC/C=C/c2ccccc2)O1 (stereo partly specified)
CC50 at 24 h [1]: 159 µM | pIC50 [2]: 4.41 | pIC50 (RAW264.7): 4.19 | selectivity ratio [3]: 2.5

O=C1C=CC[C@H](C[C@@H](O)C[C@H](O)C[C@@H](O)CC/C=C/c2ccccc2)O1
CC50 at 24 h [1]: > 278 µM | pIC50 [2]: < 3.56 | pIC50 (RAW264.7): 3.99 | selectivity ratio [3]: > 2.7

O=C1C=CC[C@H](CCC[C@H](O)C[C@@H](O)CC/C=C/c2ccccc2)O1
CC50 at 24 h [1]: 33.4 µM | pIC50 [2]: 4.56 | pIC50 (RAW264.7): 5.22 | selectivity ratio [3]: 5.6

O=C1C=CC[C@H](/C=C/C[C@H](O)C[C@@H](O)CC/C=C/c2ccccc2)O1
CC50 at 24 h [1]: 79.8 µM | pIC50 [2]: 4.55 | pIC50 (RAW264.7): 5.14 | selectivity ratio [3]: 10.9

O=C1C=CC[C@H](C[C@@H](O)CCC[C@H](O)C[C@@H](O)CC/C=C/c2ccccc2)O1
CC50 at 24 h [1]: 41.3 µM | pIC50 [2]: 4.54 | pIC50 (RAW264.7): 4.82 | selectivity ratio [3]: 2.8
